Measurements: patent US20170165286A1, “COMPOSITIONS AND METHODS FOR TREATING DIABETES AND LIVER DISEASES” (Cempra Pharmaceuticals, Inc., priority 2014, published 2017)
Like-named read-outs stand apart in the source and are kept apart here.

Assays:
[1] = Phase 1 study in subjects with hepatic impairment: pharmacokinetics and protein binding; type: in vivo, humans; parameters: AUC(0-t): concentration or dose not given beside the values; settings: for AUC0-t Geometric Mean Ratio (%) (test/reference) / AUC0-tau Geometric Mean Ratio (%) (test/reference) / Cmax Geometric Mean Ratio (%) (test/reference) / AUC(0-t) / AUC / Cmax: Day 5; for AUC(0-t) / AUC / Cmax / half-life: human, plasma
Procedure: Safety and Pharmacokinetics of solithromycin in Subjects with Hepatic Impairment. The safety, pharmacokinetics (PK), and protein binding of solithromycin was evaluated in subjects with mild, moderate, and severe hepatic impairment compared to healthy subjects with normal hepatic function (matched for age, weight, and gender). The evaluation was performed in a Phase 1, open-label, multiple-dose study in subjects with mild (Child-Pugh Class A), moderate (Child-Pugh Class B), and severe (Child-Pugh Class C) hepatic impairment and healthy matched control subjects with normal hepatic function. All subjects received a once-daily dose of 800 mg on Day 1 followed by 400 mg on Days 2 through 5.
PK parameters on Day 5 were compared between the hepatic impaired cohorts and the control group, and geometric mean ratios were calculated.

[2] = system: human FXR; assay: FXR reporter cell assays (agonist and antagonist); type: cell-based; settings: reporter cells, from 30 μM, 1:3 dilutions
Procedure: FXR Signal Pathway. […] Solithromycin is tested in reporter cell assays expressing a hybrid FXR receptor (Indigo Biosciences, PA). Agonist and antagonist activity is measured. Solithromycin is tested starting at 30 μM and continuing with 1:3 dilutions. […] Without being bound by theory, it is believed herein that dependence upon the FXR pathway for activity in treating the diseases described herein may lead to increased triglycerides (TGs) and low density lipids (LDL) as an unwanted side effects. For example, patients with various forms of FLD may be at risk for cardiovascular disease, which may be aggravated by increased triglycerides and low density lipids.

[3] = Absorption, metabolism and excretion of orally administered solithromycin; type: in vivo; settings: oral
From the text: Macrolide antibiotics, like solithromycin, are primarily metabolized and excreted through liver-dependent mechanisms; this study evaluated the safety and PK of solithromycin in patients with chronic liver disease. It has been observed that approximately 78% of orally administered solithromycin is absorbed. Less than 15% unchanged solithromycin is excreted in the feces. It has also been observed that ˜70% of orally administered solithromycin is metabolized and excreted by the liver. Accordingly, high liver concentrations are observed. No dosage adjustment is needed when administering solithromycin to patients with mild, moderate, or severe hepatic impairment.

CC[C@H]1OC(=O)[C@@](C)(F)C(=O)[C@H](C)[C@@H](O[C@@H]2O[C@H](C)C[C@H](N(C)C)[C@H]2O)[C@](C)(OC)C[C@@H](C)C(=O)[C@H](C)[C@H]2N(CCCCn3cc(-c4cccc(N)c4)nn3)C(=O)O[C@]12C [solithromycin]
AUC0-t Geometric Mean Ratio (%) (test/reference) ([1]; Mild versus Control): 117.44% | AUC0-tau Geometric Mean Ratio (%) (test/reference) ([1]; Mild versus Control): 75.30% | Cmax Geometric Mean Ratio (%) (test/reference) ([1]; Mild versus Control): 121.08% | AUC0-t Geometric Mean Ratio (%) (test/reference) ([1]; Moderate versus Control): 117.83% | AUC0-tau Geometric Mean Ratio (%) (test/reference) ([1]; Moderate versus Control): 71.58% | Cmax Geometric Mean Ratio (%) (test/reference) ([1]; Moderate versus Control): 105.36% | AUC0-t Geometric Mean Ratio (%) (test/reference) ([1]; Severe versus Control): 109.95% | AUC0-tau Geometric Mean Ratio (%) (test/reference) ([1]; Severe versus Control): 58.86% | Cmax Geometric Mean Ratio (%) (test/reference) ([1]; Severe versus Control): 77.69% | Accumulation on Day 5 ([1]; any of the hepatic impaired cohorts): No accumulation | AUC(0-t) ([1]; healthy control subjects, read-out: AUC0-t (Reference Group)): 7550 ng·h/mL | AUC ([1]; healthy control subjects, read-out: AUC0-tau (Reference Group)): 10500 ng·h/mL | Cmax ([1]; healthy control subjects, read-out: Cmax (Reference Group)): 649 ng/mL | Cmax ([1]; mild hepatic impairment, 800 mg Day 1, 400 mg Days 2-5, read-out: Cmax (Test Group)): 786 ng/mL | AUC(0-t) ([1]; mild hepatic impairment, read-out: AUC0-t (Test Group)): 8870 ng·h/mL | AUC ([1]; mild hepatic impairment, read-out: AUC0-tau (Test Group)): 7900 ng·h/mL | AUC(0-t) ([1]; moderate hepatic impairment, read-out: AUC0-t (Test Group)): 8900 ng·h/mL | AUC ([1]; moderate hepatic impairment, read-out: AUC0-tau (Test Group)): 7510 ng·h/mL | Cmax ([1]; moderate hepatic impairment, read-out: Cmax (Test Group)): 684 ng/mL | AUC(0-t) ([1]; severe hepatic impairment, read-out: AUC0-t (Test Group)): 8310 ng·h/mL | AUC ([1]; severe hepatic impairment, read-out: AUC0-tau (Test Group)): 6180 ng·h/mL | Cmax ([1]; severe hepatic impairment, read-out: Cmax (Test Group)): 504 ng/mL | half-life ([1]; control): 8.9 h | half-life ([1]; mild hepatic impairment): 10.2 h | half-life ([1]; moderate hepatic impairment): 10.4 h | half-life ([1]; severe hepatic impairment): 15.7 h | Mean plasma protein binding percentage at Day 5 Cmax ([1]; mild or moderate hepatic impairment vs control): not significantly affected | Mean plasma protein binding percentage at Day 5 Cmax ([1]; severe cohort vs control): slightly lower | Agonist activity ([2]; hybrid FXR receptor): not show agonistic activity | Antagonist activity ([2]; hybrid FXR receptor): nor significant antagonistic activity | Cytotoxicity in the antagonist assays [2]: does not show evidence of cytotoxicity | Fraction of orally administered dose absorbed [3]: approximately 78% | Fraction of orally administered dose metabolized and excreted by the liver [3]: ~70% | Unchanged drug excreted in the feces [3]: Less than 15%
